From PubChem BioAssay AID336 (DTP/NCI, 2004)
Several values for one entry are separate records, joined by “and”; a condition that tells them apart may be missing. Equal entries are not always repeated. Inconclusive results and toxic doses are left out.

System: BDF1 mice, P388/VCR leukemia ip, median survival T/C
Assay: NCI In Vivo Anticancer Drug Screen. Data for tumor model P388 Leukemia resistant to Vincristine; NSC 67574 (intraperitoneal) in B6D2F1 (BDF1) mice
Details: endpoint: median survival time, higher = longer survival
Procedure: The antitumor activity of compounds was measured in mice bearing transplantable tumors. Survival or tumor size were measured and the results are expressed as the measurement made in the treated group (T) divided by the measurement made in the vehicle treated control group (C). The tumor model used in this assay is P388 Leukemia resistant to Vincristine; NSC 67574 (intraperitoneal) in B6D2F1 (BDF1) mice

[1] = dose: 40.0 mg/kg/injection, schedule: Q01DX010 (ip), vehicle: saline
[2] = dose: 100.0 mg/kg/injection, schedule: Q01DX010 (ip), vehicle: saline
[3] = dose: 200.0 mg/kg/injection, schedule: Q01DX010 (ip), vehicle: saline
[4] = dose: 20.0 mg/kg/injection, schedule: Q01DX010 (ip), vehicle: saline

Question: Which results are given for `CCC1(O)CC2CN(CCc3c([nH]c4ccccc34)C(C(=O)OC)(c3cc4c(cc3OC)N(C)C3C(O)(C(=O)NCCSSCCNC(=O)C5(O)C(O)C6(CC)C=CCN7CCC8(c9cc(C%10(C(=O)OC)CC%11CN(CCc%12c%10[nH]c%10ccccc%12%10)CC(O)(CC)C%11)c(OC)cc9N(C)C58)C76)C(O)C5(CC)C=CCN6CCC43C65)C2)C1` (stereo unspecified)?
Answer: T/C (dose: 250.0 micrograms/kg/injection, schedule: Q04DX003 (ip), vehicle: saline): 117 % of control; T/C (dose: 648.0 micrograms/kg/injection, schedule: Q04DX003 (ip), vehicle: saline): 154 % of control; T/C (dose: 1000.0 micrograms/kg/injection, schedule: Q04DX003 (ip), vehicle: saline): 161 % of control; T/C (dose: 2000.0 micrograms/kg/injection, schedule: Q04DX003 (ip), vehicle: saline): 164 % of control; T/C (dose: 3000.0 micrograms/kg/injection, schedule: Q04DX003 (ip), vehicle: saline): 90 % of control

Question: For `O=C(Nc1cccc(NC(=O)Nc2cccc(C3=NCCN3)c2)c1)Nc1cccc(C2=NCCN2)c1`, which T/C [1] is on record?
Answer: Its T/C is 154 % of control.

Question: What about the T/C (dose: 90.0 mg/kg/injection, schedule: Q01DX010 (ip), vehicle: saline) of the same molecule?
Answer: The T/C was 118 % of control.

Question: Which T/C [2] does the source give for `COc1cc(-c2ccc(Nc3ccccc3C(=O)O)c(OC)c2)ccc1Nc1ccccc1C(=O)O` here?
Answer: Its T/C is 150 % of control.

Question: Which T/C (dose: 120.0 mg/kg/injection, schedule: Q01DX010 (ip), vehicle: saline) does the source give for `O=C(Nc1ccc(NC(=O)Nc2cccc(C3=NCCN3)c2)cc1)Nc1cccc(C2=NCCN2)c1` here?
Answer: The T/C was 162 % of control and 183 % of control.

Question: And the T/C (dose: 480.0 mg/kg/injection, schedule: Q01DX010 (ip), vehicle: saline)?
Answer: The T/C was 100 % of control.

Question: What does the source list for `[I][Hg][CH2]C1COC([CH2][Hg][I])CO1` (stereo unspecified)?
Answer: T/C (dose: 0.78 mg/kg/injection, schedule: Q01DX010 (ip), vehicle: saline): 88 % of control; T/C (dose: 1.56 mg/kg/injection, schedule: Q01DX010 (ip), vehicle: saline): 103 % of control; T/C (dose: 3.13 mg/kg/injection, schedule: Q01DX010 (ip), vehicle: saline): 111 % of control

Question: `O=C(Nc1ccc(C2=NCCN2)cc1)c1cc(C(=O)Nc2ccc(C3=NCCN3)cc2)cc([N+](=O)[O-])c1` was tested. Which T/C (dose: 167.0 mg/kg/injection, schedule: Q01DX010 (ip), vehicle: saline) did it give?
Answer: Its T/C is 95 % of control.

Question: What about the T/C (dose: 250.0 mg/kg/injection, schedule: Q01DX010 (ip), vehicle: saline) of the same molecule?
Answer: The T/C was 100 % of control.

Question: What about the T/C (dose: 375.0 mg/kg/injection, schedule: Q01DX010 (ip), vehicle: saline) of the same molecule?
Answer: Its T/C is 95 % of control.

Question: What about the T/C (dose: 512.0 mg/kg/injection, schedule: Q01DX010 (ip), vehicle: saline) of the same molecule?
Answer: The T/C was 100 % of control.

Question: How did the T/C (dose: 8.64 mg/kg/injection, schedule: Q04DX003 (ip), vehicle: sodium bicarbonate) turn out when `CN(Cc1cnc2nc(N)nc(N)c2n1)c1ccc(C(=O)N[C@@H](CCC(=O)O)C(=O)O)cc1` was run?
Answer: Its T/C is 167 % of control.

Question: What about the T/C (dose: 14.4 mg/kg/injection, schedule: Q04DX003 (ip), vehicle: sodium bicarbonate) of the same molecule?
Answer: Its T/C is 188 % of control.

Question: And the T/C (dose: 24.0 mg/kg/injection, schedule: Q04DX003 (ip), vehicle: sodium bicarbonate)?
Answer: The T/C was 214 % of control.

Question: Which results are given for `CN(C)c1nc(N(C)C)nc(N(C)C)n1`?
Answer: T/C (dose: 18.8 mg/kg/injection, schedule: Q01DX010 (ip), vehicle: saline): 100 % of control; T/C (dose: 37.5 mg/kg/injection, schedule: Q01DX010 (ip), vehicle: saline): 100 % of control; T/C (dose: 75.0 mg/kg/injection, schedule: Q01DX010 (ip), vehicle: saline): 100 % of control; T/C (dose: 150.0 mg/kg/injection, schedule: Q01DX010 (ip), vehicle: saline): 104 % of control

Question: `CC1CN=C(c2ccc(NC(=O)c3cccc(C(=O)Nc4ccc(C5=NCC(C)N5)cc4)c3)cc2)N1` (stereo unspecified) was tested. Which T/C (dose: 12.0 mg/kg/injection, schedule: Q01DX010 (ip), vehicle: saline) did it give?
Answer: The T/C was 104 % of control.

Question: What about the T/C (dose: 18.0 mg/kg/injection, schedule: Q01DX010 (ip), vehicle: saline) of the same molecule?
Answer: Its T/C is 117 % of control.

Question: What about the T/C (dose: 27.0 mg/kg/injection, schedule: Q01DX010 (ip), vehicle: saline) of the same molecule?
Answer: The T/C was 104 % of control.

Question: What about the T/C [1] of the same molecule?
Answer: The T/C was 108 % of control.

Question: Which results are given for `CC[C@](O)(C(=O)O)c1cc2n(c(=O)c1CO)Cc1cc3ccccc3nc1-2`?
Answer: T/C (dose: 14.4 mg/kg/injection, schedule: Q04DX003 (ip), vehicle: saline): 155 % of control; T/C (dose: 24.0 mg/kg/injection, schedule: Q04DX003 (ip), vehicle: saline): 180 % of control; T/C (dose: 40.0 mg/kg/injection, schedule: Q04DX003 (ip), vehicle: saline): 102 % of control; T/C (dose: 66.7 mg/kg/injection, schedule: Q04DX003 (ip), vehicle: saline): 161 % of control

Question: For `O=P1(N(CCCl)CCCl)NCCCO1` (stereo unspecified), which T/C (dose: 144.0 mg/kg/injection, schedule: Q01DX001 (ip), vehicle: saline) is on record?
Answer: The T/C was 181 % of control.

Question: What about the T/C (dose: 240.0 mg/kg/injection, schedule: Q01DX001 (ip), vehicle: saline) of the same molecule?
Answer: Its T/C is 194 % of control.

Question: `O=C(Nc1ccc(C(=O)Nc2ccc(C3=NCCCN3)cc2)cc1)Nc1ccc(C2=NCCCN2)cc1` was tested. Which T/C (dose: 1.88 mg/kg/injection, schedule: Q01DX010 (ip), vehicle: saline) did it give?
Answer: Its T/C is 116 % of control and 123 % of control.

Question: What about the T/C (dose: 3.75 mg/kg/injection, schedule: Q01DX010 (ip), vehicle: saline) of the same molecule?
Answer: The T/C was 116 % of control and 123 % of control.

Question: And the T/C (dose: 15.0 mg/kg/injection, schedule: Q01DX010 (ip), vehicle: saline)?
Answer: The T/C was 123 % of control.

Question: What does the source list for `CN(C)/N=N/c1nc[nH]c1C(N)=O`?
Answer: T/C (dose: 25.0 mg/kg/injection, schedule: Q01DX010 (ip), vehicle: saline): 100 % of control and 116 % of control; T/C (dose: 50.0 mg/kg/injection, schedule: Q01DX010 (ip), vehicle: saline): 107 % of control; T/C [3]: 107 % of control and 116 % of control

Question: Which results are given for `CN=C(NC)c1ccc(NC(=O)Nc2ccc(NC(=O)Nc3ccc(C(=NC)NC)cc3)cc2)cc1`?
Answer: T/C (dose: 13.3 mg/kg/injection, schedule: Q01DX010 (ip), vehicle: saline): 150 % of control; T/C [4]: 100 % of control; T/C (dose: 30.0 mg/kg/injection, schedule: Q01DX010 (ip), vehicle: saline): 504 % of control

Question: With `Cc1c2ccncc2c(C)c2c1[nH]c1ccccc12` as the molecule, how does the T/C (dose: 13.0 mg/kg/injection, schedule: Q04DX003 (ip), vehicle: water) read?
Answer: Its T/C is 150 % of control.

Question: What about the T/C (dose: 21.6 mg/kg/injection, schedule: Q04DX003 (ip), vehicle: water) of the same molecule?
Answer: The T/C was 210 % of control.

Question: And the T/C (dose: 24.0 mg/kg/injection, schedule: Q04DX003 (ip), vehicle: clinical formulation)?
Answer: The T/C was 158 % of control.

Question: What about the T/C (dose: 36.0 mg/kg/injection, schedule: Q04DX003 (ip), vehicle: water) of the same molecule?
Answer: The T/C was 253 % of control.

Question: What about the T/C (dose: 40.0 mg/kg/injection, schedule: Q04DX003 (ip), vehicle: clinical formulation) of the same molecule?
Answer: The T/C was 203 % of control.

Question: And the T/C (dose: 60.0 mg/kg/injection, schedule: Q04DX003 (ip), vehicle: water)?
Answer: The T/C was 93 % of control.

Question: And the T/C (dose: 66.7 mg/kg/injection, schedule: Q04DX003 (ip), vehicle: clinical formulation)?
Answer: Its T/C is 98 % of control.

Question: With `C[C@@H]1C[C@@H]([C@H](O)CC2CC(=O)NC(=O)C2)C(=O)[C@@H](C)C1` as the molecule, how does the T/C (dose: 5.0 mg/kg/injection, schedule: Q01DX010 (ip), vehicle: saline) read?
Answer: Its T/C is 92 % of control and 108 % of control.

Question: And the T/C (dose: 10.0 mg/kg/injection, schedule: Q01DX010 (ip), vehicle: saline)?
Answer: Its T/C is 100 % of control and 104 % of control.

Question: What about the T/C [4] of the same molecule?
Answer: The T/C was 112 % of control and 116 % of control.

Question: And the T/C [1]?
Answer: Its T/C is 120 % of control and 124 % of control.

Question: `CC(=O)c1cccc(NC2C(N)C(NC(=O)N(C)C)(C(C)O)C(C)(O)C2(O)COC(=O)c2c(C)cccc2O)c1` (stereo unspecified) was tested. Which T/C (dose: 5.4 mg/kg/injection, schedule: Q04DX003 (ip), vehicle: alkali diluted with saline) did it give?
Answer: Its T/C is 98 % of control.

Question: And the T/C (dose: 9.0 mg/kg/injection, schedule: Q04DX003 (ip), vehicle: alkali diluted with saline)?
Answer: Its T/C is 98 % of control.

Question: And the T/C (dose: 15.0 mg/kg/injection, schedule: Q04DX003 (ip), vehicle: alkali diluted with saline)?
Answer: The T/C was 100 % of control.

Question: `C[C@]12C=CC(=O)C=C1CC[C@@H]1[C@@H]2[C@@H](O)C[C@@]2(C)[C@H]1CC[C@]2(O)C(=O)CO` was tested. Which T/C (dose: 12.5 mg/kg/injection, schedule: Q01DX010 (sc), vehicle: steriod suspending solution) did it give?
Answer: Its T/C is 107 % of control and 116 % of control.

Question: And the T/C (dose: 25.0 mg/kg/injection, schedule: Q01DX010 (sc), vehicle: steriod suspending solution)?
Answer: Its T/C is 103 % of control and 116 % of control.

Question: What about the T/C (dose: 50.0 mg/kg/injection, schedule: Q01DX010 (sc), vehicle: steriod suspending solution) of the same molecule?
Answer: Its T/C is 103 % of control and 120 % of control.

Question: What about the T/C (dose: 100.0 mg/kg/injection, schedule: Q01DX010 (sc), vehicle: steriod suspending solution) of the same molecule?
Answer: Its T/C is 108 % of control and 111 % of control.

Question: Which results are given for `O=c1cnn(C2OC(CO)C(O)C2O)c(=O)[nH]1` (stereo unspecified)?
Answer: T/C [2]: 107 % of control; T/C [3]: 114 % of control; T/C (dose: 400.0 mg/kg/injection, schedule: Q01DX010 (ip), vehicle: saline): 115 % of control and 121 % of control; T/C (dose: 800.0 mg/kg/injection, schedule: Q01DX010 (ip), vehicle: saline): 123 % of control; T/C (dose: 1600.0 mg/kg/injection, schedule: Q01DX010 (ip), vehicle: saline): 88 % of control

Question: Which results are given for `CC(CCC(C)OS(C)(=O)=O)OS(C)(=O)=O` (stereo unspecified)?
Answer: T/C (dose: 2.0 mg/kg/injection, schedule: Q01DX010 (ip), vehicle: saline): 100 % of control; T/C (dose: 4.0 mg/kg/injection, schedule: Q01DX010 (ip), vehicle: saline): 96 % of control; T/C (dose: 8.0 mg/kg/injection, schedule: Q01DX010 (ip), vehicle: saline): 96 % of control and 100 % of control; T/C (dose: 16.0 mg/kg/injection, schedule: Q01DX010 (ip), vehicle: saline): 100 % of control and 112 % of control; T/C (dose: 32.0 mg/kg/injection, schedule: Q01DX010 (ip), vehicle: saline): 90 % of control
